According to ChEMBL document CHEMBL3991601, “The target landscape of clinical kinase drugs” (Science, 2017):
Calls of active or inactive are those of the source. For most assays here, no stated cut-off is given here; in the data, actives have a measured Kd and inactives only a lower limit.

Tests used:
[1] = target: PAS domain-containing serine/threonine-protein kinase (Homo sapiens, UniProt Q96RG2)
[2] = target: Glycogen synthase kinase-3 beta (Homo sapiens, UniProt P49841)
[3] = target: Mitogen-activated protein kinase kinase kinase kinase 1 (Homo sapiens, UniProt Q92918)
Sequence of Mitogen-activated protein kinase kinase kinase kinase 1 (Q92918 whole entry): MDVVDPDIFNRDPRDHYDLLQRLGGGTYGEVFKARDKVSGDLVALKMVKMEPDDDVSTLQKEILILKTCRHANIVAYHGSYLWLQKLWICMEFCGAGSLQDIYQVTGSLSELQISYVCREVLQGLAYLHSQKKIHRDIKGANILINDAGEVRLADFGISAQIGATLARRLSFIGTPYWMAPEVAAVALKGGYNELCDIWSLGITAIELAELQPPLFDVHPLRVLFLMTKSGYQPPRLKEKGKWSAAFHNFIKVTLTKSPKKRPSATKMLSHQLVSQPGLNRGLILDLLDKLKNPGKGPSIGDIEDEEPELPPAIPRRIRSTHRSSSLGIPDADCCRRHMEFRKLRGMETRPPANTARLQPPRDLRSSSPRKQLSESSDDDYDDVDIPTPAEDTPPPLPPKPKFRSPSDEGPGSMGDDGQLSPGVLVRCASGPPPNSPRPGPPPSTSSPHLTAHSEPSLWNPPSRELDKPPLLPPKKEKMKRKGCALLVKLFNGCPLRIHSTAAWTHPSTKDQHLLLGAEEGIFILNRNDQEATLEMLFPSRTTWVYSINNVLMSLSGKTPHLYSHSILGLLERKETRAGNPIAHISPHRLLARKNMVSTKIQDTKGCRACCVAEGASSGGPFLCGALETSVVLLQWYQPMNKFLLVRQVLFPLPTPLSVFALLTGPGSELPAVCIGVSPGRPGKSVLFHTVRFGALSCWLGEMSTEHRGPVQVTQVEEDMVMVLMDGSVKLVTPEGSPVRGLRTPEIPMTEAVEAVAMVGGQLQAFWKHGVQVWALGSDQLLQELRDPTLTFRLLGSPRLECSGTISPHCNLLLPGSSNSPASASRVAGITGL

[4] = target: T1, Mitogen-activated protein kinase 15 (Homo sapiens, UniProt Q8TD08)
T1 sequence (Q8TD08 whole entry): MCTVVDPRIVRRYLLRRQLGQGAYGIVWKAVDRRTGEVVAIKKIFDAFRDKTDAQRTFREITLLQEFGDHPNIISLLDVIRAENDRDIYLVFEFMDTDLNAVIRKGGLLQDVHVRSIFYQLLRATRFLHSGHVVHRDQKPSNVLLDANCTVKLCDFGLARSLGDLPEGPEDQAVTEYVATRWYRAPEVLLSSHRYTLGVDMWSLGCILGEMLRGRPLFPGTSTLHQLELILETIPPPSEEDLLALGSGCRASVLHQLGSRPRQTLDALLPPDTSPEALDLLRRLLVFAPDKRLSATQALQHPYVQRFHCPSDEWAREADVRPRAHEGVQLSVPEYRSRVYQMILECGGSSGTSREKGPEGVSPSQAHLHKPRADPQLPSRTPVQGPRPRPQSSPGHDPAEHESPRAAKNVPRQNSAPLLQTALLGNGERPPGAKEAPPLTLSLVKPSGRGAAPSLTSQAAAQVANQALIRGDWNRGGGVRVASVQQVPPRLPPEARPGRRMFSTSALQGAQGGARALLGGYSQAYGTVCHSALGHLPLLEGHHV

[5] = target: Citron Rho-interacting kinase (Homo sapiens, UniProt O14578)
[6] = target: T2, Serine/threonine-protein kinase PLK4 (Homo sapiens, UniProt O00444)
T2 sequence (O00444 whole entry): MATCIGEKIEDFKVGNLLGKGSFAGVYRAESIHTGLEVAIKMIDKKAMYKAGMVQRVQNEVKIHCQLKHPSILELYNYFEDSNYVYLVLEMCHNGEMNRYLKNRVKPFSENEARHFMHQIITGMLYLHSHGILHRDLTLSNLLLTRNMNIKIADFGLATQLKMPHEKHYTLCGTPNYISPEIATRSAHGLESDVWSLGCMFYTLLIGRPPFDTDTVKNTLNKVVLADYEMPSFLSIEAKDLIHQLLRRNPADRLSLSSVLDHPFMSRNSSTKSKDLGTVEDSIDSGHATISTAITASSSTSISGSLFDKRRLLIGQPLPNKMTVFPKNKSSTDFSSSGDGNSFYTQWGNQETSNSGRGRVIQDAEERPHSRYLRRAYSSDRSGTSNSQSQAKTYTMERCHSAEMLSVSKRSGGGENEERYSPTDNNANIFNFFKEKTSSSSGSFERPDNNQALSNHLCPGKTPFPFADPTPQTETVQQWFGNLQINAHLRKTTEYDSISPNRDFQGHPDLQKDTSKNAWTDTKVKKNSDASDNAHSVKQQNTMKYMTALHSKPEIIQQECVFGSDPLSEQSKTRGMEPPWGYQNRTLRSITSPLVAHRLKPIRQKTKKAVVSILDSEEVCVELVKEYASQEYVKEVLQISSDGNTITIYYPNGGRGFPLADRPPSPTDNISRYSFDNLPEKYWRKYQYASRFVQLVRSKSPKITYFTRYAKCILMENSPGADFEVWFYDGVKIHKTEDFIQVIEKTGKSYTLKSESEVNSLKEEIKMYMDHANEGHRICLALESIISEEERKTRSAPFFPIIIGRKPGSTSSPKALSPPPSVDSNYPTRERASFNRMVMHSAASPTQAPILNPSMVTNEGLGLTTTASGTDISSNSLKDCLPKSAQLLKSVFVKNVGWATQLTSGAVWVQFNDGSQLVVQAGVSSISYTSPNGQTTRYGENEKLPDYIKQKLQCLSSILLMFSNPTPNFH

[7] = target: GTP-binding protein 4 (Homo sapiens, UniProt Q9BZE4)
[8] = target: Activin receptor type-2B (Homo sapiens, UniProt Q13705)
Sequence of Activin receptor type-2B (Q13705 whole entry): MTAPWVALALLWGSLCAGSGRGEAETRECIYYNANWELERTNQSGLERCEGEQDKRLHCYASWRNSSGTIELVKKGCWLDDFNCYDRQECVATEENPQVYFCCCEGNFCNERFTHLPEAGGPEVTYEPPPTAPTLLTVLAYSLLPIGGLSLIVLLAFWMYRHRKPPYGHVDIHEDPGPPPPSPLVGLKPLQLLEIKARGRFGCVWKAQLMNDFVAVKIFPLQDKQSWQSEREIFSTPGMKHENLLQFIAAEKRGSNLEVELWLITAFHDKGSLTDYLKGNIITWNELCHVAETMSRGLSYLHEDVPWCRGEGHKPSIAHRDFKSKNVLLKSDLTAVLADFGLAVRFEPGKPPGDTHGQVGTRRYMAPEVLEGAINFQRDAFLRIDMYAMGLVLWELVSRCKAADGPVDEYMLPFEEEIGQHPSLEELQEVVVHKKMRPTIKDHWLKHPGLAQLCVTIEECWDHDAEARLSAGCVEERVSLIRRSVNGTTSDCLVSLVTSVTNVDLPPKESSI

[9] = target: T3, Adenine phosphoribosyltransferase (Homo sapiens, UniProt P07741)
T3 sequence (P07741 whole entry): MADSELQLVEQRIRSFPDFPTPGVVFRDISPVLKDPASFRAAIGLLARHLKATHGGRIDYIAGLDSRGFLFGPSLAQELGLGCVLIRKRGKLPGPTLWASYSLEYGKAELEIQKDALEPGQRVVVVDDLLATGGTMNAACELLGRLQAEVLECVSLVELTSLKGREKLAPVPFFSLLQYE

[10] = target: Ras-related protein Rab-6A (Homo sapiens, UniProt P20340)
Sequence of Ras-related protein Rab-6A (P20340 whole entry): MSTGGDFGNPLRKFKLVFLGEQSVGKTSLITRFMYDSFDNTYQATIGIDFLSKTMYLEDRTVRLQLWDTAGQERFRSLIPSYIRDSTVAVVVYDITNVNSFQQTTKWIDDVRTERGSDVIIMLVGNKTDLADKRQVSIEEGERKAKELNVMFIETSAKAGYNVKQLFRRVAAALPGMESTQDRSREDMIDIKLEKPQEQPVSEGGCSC

[11] = target: RAC-alpha serine/threonine-protein kinase (Homo sapiens, UniProt P31749)
[12] = target: GTP-binding nuclear protein Ran (Homo sapiens, UniProt P62826)
[13] = target: Cyclin-dependent kinase 4 (Homo sapiens, UniProt P11802)
Sequence of Cyclin-dependent kinase 4 (P11802 whole entry, canonical isoform): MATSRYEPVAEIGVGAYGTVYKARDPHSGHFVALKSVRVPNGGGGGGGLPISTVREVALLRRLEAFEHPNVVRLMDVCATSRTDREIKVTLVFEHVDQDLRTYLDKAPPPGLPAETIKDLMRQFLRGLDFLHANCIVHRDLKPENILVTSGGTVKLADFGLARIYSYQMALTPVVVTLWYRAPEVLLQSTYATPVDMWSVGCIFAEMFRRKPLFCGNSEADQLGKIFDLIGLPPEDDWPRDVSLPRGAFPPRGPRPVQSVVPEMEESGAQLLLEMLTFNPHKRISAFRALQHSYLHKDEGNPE

[14] = target: Casein kinase I isoform delta (Homo sapiens, UniProt P48730)
Sequence of Casein kinase I isoform delta (P48730 whole entry, canonical isoform): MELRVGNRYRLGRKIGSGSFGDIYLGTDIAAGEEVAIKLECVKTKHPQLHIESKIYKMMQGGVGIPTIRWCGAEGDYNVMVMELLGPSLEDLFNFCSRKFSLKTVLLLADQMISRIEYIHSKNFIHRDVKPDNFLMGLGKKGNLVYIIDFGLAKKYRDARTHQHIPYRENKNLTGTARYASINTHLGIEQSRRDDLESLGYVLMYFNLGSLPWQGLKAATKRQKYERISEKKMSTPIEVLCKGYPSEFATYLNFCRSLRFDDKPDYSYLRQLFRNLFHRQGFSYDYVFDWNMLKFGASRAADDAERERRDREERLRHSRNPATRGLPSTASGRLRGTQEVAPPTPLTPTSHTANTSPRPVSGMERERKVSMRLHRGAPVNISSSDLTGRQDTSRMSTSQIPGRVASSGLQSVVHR

[15] = target: Calcium/calmodulin-dependent protein kinase type II subunit gamma (Homo sapiens, UniProt Q13555)
Sequence of Calcium/calmodulin-dependent protein kinase type II subunit gamma (Q13555 whole entry): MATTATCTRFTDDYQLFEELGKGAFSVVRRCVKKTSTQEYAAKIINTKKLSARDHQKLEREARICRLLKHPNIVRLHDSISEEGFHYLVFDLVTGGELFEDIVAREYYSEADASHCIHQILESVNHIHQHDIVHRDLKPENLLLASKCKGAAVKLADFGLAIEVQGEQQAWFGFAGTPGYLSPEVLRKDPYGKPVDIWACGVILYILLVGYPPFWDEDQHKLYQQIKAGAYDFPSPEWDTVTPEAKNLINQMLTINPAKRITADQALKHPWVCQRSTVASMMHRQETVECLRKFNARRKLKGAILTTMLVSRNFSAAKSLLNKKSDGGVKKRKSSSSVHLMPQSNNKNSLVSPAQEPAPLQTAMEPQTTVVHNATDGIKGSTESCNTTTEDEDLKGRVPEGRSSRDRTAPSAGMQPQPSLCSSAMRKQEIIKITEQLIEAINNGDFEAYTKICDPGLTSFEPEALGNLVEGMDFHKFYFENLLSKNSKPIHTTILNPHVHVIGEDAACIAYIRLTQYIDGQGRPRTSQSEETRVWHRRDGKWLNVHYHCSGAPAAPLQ

[16] = target: Membrane-associated progesterone receptor component 1 (Homo sapiens, UniProt O00264)
[17] = target: Tyrosine-protein kinase CSK (Homo sapiens, UniProt P41240)
[18] = target: Cyclin-dependent kinase 5 (Homo sapiens, UniProt Q00535)
Sequence of Cyclin-dependent kinase 5 (Q00535 whole entry): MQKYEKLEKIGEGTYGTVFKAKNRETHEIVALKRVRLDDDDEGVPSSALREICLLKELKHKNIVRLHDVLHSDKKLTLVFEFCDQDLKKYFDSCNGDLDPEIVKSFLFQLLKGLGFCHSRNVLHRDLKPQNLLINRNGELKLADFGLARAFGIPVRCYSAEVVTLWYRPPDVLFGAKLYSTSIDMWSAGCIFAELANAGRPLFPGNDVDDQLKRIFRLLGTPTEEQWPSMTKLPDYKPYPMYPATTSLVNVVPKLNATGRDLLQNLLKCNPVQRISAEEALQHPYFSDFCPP

[19] = target: Cyclin-dependent kinase 2 (Homo sapiens, UniProt P24941)
[20] = target: LIM domain kinase 1 (Homo sapiens, UniProt P53667)

Sequence of PAS domain-containing serine/threonine-protein kinase (Q96RG2 whole entry, the tested form may be a part): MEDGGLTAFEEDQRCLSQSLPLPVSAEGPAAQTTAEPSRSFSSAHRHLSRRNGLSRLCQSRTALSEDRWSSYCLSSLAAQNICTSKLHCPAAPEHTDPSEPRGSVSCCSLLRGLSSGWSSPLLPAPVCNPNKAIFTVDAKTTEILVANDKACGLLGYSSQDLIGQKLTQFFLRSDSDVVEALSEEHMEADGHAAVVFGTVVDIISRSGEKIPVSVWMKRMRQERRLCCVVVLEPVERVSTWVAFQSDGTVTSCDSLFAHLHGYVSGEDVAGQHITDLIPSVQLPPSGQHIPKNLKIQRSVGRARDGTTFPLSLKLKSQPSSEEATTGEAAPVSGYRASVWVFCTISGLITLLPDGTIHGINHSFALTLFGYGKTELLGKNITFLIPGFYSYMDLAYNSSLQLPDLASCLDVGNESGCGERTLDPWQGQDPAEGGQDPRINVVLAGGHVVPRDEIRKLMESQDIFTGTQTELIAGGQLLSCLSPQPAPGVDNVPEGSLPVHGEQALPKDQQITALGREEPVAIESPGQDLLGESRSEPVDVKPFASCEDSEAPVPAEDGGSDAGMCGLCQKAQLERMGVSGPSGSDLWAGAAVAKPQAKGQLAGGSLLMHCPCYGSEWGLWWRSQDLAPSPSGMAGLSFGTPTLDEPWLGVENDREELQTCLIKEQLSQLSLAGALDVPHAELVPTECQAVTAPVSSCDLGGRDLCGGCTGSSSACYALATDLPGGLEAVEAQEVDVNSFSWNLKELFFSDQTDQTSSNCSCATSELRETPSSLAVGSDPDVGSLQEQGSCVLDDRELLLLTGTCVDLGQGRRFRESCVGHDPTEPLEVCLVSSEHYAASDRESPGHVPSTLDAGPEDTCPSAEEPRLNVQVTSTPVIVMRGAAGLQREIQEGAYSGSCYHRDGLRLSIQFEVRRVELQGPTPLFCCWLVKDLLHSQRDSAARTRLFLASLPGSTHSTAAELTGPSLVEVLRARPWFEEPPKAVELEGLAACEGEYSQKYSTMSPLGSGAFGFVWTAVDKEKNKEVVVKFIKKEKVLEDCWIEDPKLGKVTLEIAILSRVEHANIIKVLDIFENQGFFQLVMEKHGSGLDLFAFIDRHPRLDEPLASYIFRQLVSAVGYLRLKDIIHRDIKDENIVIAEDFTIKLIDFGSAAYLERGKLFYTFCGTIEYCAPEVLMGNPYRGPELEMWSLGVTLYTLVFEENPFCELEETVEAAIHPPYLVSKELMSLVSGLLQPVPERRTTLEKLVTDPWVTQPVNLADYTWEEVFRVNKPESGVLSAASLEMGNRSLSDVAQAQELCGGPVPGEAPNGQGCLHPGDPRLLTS
Sequence of Glycogen synthase kinase-3 beta (P49841 whole entry): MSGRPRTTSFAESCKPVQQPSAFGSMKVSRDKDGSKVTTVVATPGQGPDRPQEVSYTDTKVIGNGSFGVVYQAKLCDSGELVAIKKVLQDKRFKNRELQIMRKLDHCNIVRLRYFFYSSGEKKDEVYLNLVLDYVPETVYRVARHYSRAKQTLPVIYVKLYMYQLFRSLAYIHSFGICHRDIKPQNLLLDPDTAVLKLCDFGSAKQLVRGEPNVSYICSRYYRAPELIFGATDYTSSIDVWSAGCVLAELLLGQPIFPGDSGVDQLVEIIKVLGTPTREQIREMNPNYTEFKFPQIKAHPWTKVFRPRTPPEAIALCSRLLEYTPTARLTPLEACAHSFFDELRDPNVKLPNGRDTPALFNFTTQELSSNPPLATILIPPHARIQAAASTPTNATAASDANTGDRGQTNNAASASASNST

Structure (SMILES)	Kd [1]	Kd [2]	Kd [3]	Kd [5]	Kd [6]	Kd [7]	Kd [8]	Kd [9]	Kd [10]	Kd [11]	Kd [12]	Kd [13]	Kd [14]	Kd [15]	Kd [16]	Kd [17]	Kd [18]	Kd [19]	Kd [20]	Kd [4]
O=C(Nc1c[nH]nc1-c1nc2cc(CN3CCOCC3)ccc2[nH]1)NC1CC1 [AT-9283]	> 30 µM (inactive)	0.007 µM (active)	0.214 µM (active)	> 30 µM (inactive)	0.021 µM (active)	> 30 µM (inactive)	> 30 µM (inactive)	> 30 µM (inactive)	> 30 µM (inactive)	> 30 µM (inactive)	> 30 µM (inactive)	1.29 µM (active)	> 30 µM (inactive)	> 30 µM (inactive)	> 30 µM (inactive)					> 30 µM (inactive)
CNC(=O)c1nn(C)c2c1C(C)(C)Cc1cnc(Nc3ccc(N4CCN(C)CC4)cc3)nc1-2 [MILCICLIB]	> 30 µM (inactive)	> 30 µM (inactive)	0.212 µM (active)	> 30 µM (inactive)	> 30 µM (inactive)		> 30 µM (inactive)		> 30 µM (inactive)	> 30 µM (inactive)	> 30 µM (inactive)		0.236 µM (active)	> 30 µM (inactive)	> 30 µM (inactive)	> 30 µM (inactive)		0.739 µM (active)	> 30 µM (inactive)	> 30 µM (inactive)
CNC(=O)c1cc(Oc2ccc(NC(=O)Nc3cc(C(C)(C)C)nn3-c3ccc4ncccc4c3)c(F)c2)ccn1 [REBASTINIB]	> 30 µM (inactive)	> 30 µM (inactive)	0.566 µM (active)	> 30 µM (inactive)	4.09 µM (active)	> 30 µM (inactive)	> 30 µM (inactive)		> 30 µM (inactive)	> 30 µM (inactive)	> 30 µM (inactive)		> 30 µM (inactive)	> 30 µM (inactive)		0.41 µM (active)	1.5 µM (active)	0.199 µM (active)	0.535 µM (active)	0.276 µM (active)
CN1CCN(CCOc2cc(OC3CCOCC3)c3c(Nc4c(Cl)ccc5c4OCO5)ncnc3c2)CC1 [SARACATINIB]	> 30 µM (inactive)	> 30 µM (inactive)	> 30 µM (inactive)	> 30 µM (inactive)	> 30 µM (inactive)		3.88 µM (active)		> 30 µM (inactive)	> 30 µM (inactive)	> 30 µM (inactive)	> 30 µM (inactive)	> 30 µM (inactive)	> 30 µM (inactive)		39.6 µM (active)	> 30 µM (inactive)	> 30 µM (inactive)	> 30 µM (inactive)	> 30 µM (inactive)
CC(C)c1cc(CNc2nc(Nc3cc(C4CC4)[nH]n3)cc(N3CCN(C)CC3)n2)on1 [XL-228]	> 30 µM (inactive)	> 30 µM (inactive)	0.015 µM (active)	> 30 µM (inactive)	0.003 µM (active)	> 30 µM (inactive)	> 30 µM (inactive)		> 30 µM (inactive)	> 30 µM (inactive)	> 30 µM (inactive)	> 30 µM (inactive)	> 30 µM (inactive)	> 30 µM (inactive)		> 30 µM (inactive)	> 30 µM (inactive)	> 30 µM (inactive)	2.07 µM (active)	> 30 µM (inactive)

The next lines start with results.

Kd [1]	Kd [2]	Kd [3]	Kd [5]	Kd [6]	Kd [7]	Kd [8]	Kd [9]	Kd [10]	Kd [11]	Kd [12]	Kd [13]	Kd [14]	Kd [15]	Kd [16]	Kd [17]	Kd [18]	Kd [19]	Kd [20]	Structure (SMILES)	Kd [4]
> 30 µM (inactive)	> 30 µM (inactive)	> 30 µM (inactive)	2.89 µM (active)		> 30 µM (inactive)			> 30 µM (inactive)	> 30 µM (inactive)	> 30 µM (inactive)	> 30 µM (inactive)		> 30 µM (inactive)		> 30 µM (inactive)	> 30 µM (inactive)	> 30 µM (inactive)	> 30 µM (inactive)	CCn1cc(-c2ccnc3[nH]c(-c4cccc(CN(C)C)c4)cc23)c(-c2ccc(NC(=O)N(C)C)cc2)n1 [GSK-1070916]	> 30 µM (inactive)
> 30 µM (inactive)	> 30 µM (inactive)	> 30 µM (inactive)	> 30 µM (inactive)	> 30 µM (inactive)	> 30 µM (inactive)	> 30 µM (inactive)				> 30 µM (inactive)	> 30 µM (inactive)	> 30 µM (inactive)	> 30 µM (inactive)	> 30 µM (inactive)	> 30 µM (inactive)	> 30 µM (inactive)	> 30 µM (inactive)	> 30 µM (inactive)	NC1(c2ccc(-c3nc4ccn5c(=O)[nH]nc5c4cc3-c3ccccc3)cc2)CCC1 [MK-2206]	> 30 µM (inactive)
> 30 µM (inactive)	0.667 µM (active)	2.3 µM (active)	> 30 µM (inactive)	0.668 µM (active)	> 30 µM (inactive)	> 30 µM (inactive)	> 30 µM (inactive)	> 30 µM (inactive)	> 30 µM (inactive)	> 30 µM (inactive)	> 30 µM (inactive)	> 30 µM (inactive)	0.275 µM (active)	> 30 µM (inactive)	> 30 µM (inactive)	> 30 µM (inactive)		> 30 µM (inactive)	Cc1nc(Nc2n[nH]c3c2CN(C(=O)N[C@H](CN(C)C)c2ccccc2)C3(C)C)c2sccc2n1 [PF-03758309]	> 30 µM (inactive)
> 30 µM (inactive)	6.17 µM (active)	> 30 µM (inactive)	> 30 µM (inactive)	0.041 µM (active)		> 30 µM (inactive)	> 30 µM (inactive)	> 30 µM (inactive)	> 30 µM (inactive)	> 30 µM (inactive)	> 30 µM (inactive)	> 30 µM (inactive)	> 30 µM (inactive)	> 30 µM (inactive)	> 30 µM (inactive)	> 30 µM (inactive)		> 30 µM (inactive)	CCS(=O)(=O)c1cccc(-c2cc(C(=O)NC3CCN(C)CC3)c(C)c3[nH]c4ncc(C)cc4c23)c1 [TAK-901]	> 30 µM (inactive)
> 30 µM (inactive)	0.447 µM (active)	> 30 µM (inactive)	> 30 µM (inactive)	> 30 µM (inactive)	> 30 µM (inactive)	> 30 µM (inactive)	> 30 µM (inactive)	> 30 µM (inactive)	> 30 µM (inactive)	> 30 µM (inactive)	> 30 µM (inactive)	2.38 µM (active)	> 30 µM (inactive)	> 30 µM (inactive)	> 30 µM (inactive)	0.93 µM (active)		> 30 µM (inactive)	CN1C/C=C/CCOc2cccc(c2)-c2ccnc(n2)Nc2cccc(c2)C1 [ZOTIRACICLIB]	1.07 µM (active)
